Results as given in patent publication US9884043B2, “RORgammaT inhibitors” (Merck Sharp & Dohme Corp., priority 2011, dated 2018).

Biological target: T1, 6His(GST)RORgamma-LBD (Homo sapiens, UniProt P51449)
T1 construct: the applied RORgamma-LBD contains a 6-His and GST tag; GST (N); made in house; host or cells: baculovirus-infected Sf-21 insect cells
T1 sequence (P51449 269-508 limits assumed): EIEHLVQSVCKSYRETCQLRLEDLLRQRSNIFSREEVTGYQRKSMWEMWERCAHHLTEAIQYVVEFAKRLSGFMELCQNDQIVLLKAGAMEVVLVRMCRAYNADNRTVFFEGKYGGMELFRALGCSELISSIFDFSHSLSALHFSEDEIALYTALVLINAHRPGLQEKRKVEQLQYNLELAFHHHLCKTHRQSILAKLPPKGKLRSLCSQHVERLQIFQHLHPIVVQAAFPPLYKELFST
Experiment: TR-FRET assay (Protocol A), RORgamma-LBD / SRC1_2 co-activator peptide interaction
Assay type: biochemical
Details: SRC1_2 peptide 0.1 μM, RORgamma-LBD 10 nM, overnight incubation at 4° C.
Description: (§1) Activation of RORgammaT activity can be measured using e.g. biochemical TR-FRET assay. In such an assay, interaction of cofactor-derived peptides with human RORgammaT-Ligand Binding Domain (LBD) can be measured.
(§2) To identify novel antagonists of RORgammaT, an assay was developed which employs the interaction of RORgammaT with its co-activator peptide SRC1_2. […] The assay was run following three slightly different protocols, i.e. Protocol A, Protocol B, and Protocol C, which are described below.
TR-FRET Assay (Protocol A)
The 6His(GST)RORgamma-LBD was expressed and purified from baculovirus infected Sf-21 insect cells (Bac-to-BAC, Invitrogen) and purified using glutathione sepharose chromatography (GE healthcare). Biotin and His function as anchoring points for streptavidin-allophycocyanin (Strep-APC, Perkin Elmer, C130-100) and anti-His-Europium Cryptate (Perkin Elmer, AD0111), respectively. Since energy transfer between the streptavidin and His-coupled labels APC and europium cryptate can only take place when these labels are in close proximity, measurement of energy transfer in a mixture of biotinylated peptide, His-GR-LBD, streptavidin-APC and anti-His-Europium Cryptate will be indicative for RORy-LBD/peptide binding. […] Changes in peptide binding caused by dose-curves of compounds added to the reaction mixture (DMSO concentration 0.1%), can likewise be monitored.

Row | EC50 | SMILES
1 | 79.4 nM | O=C(O)c1ccc(-c2nn(S(=O)(=O)c3ccccc3Br)c3ccccc23)cc1 [Example 13B, 4-(1-(2-bromophenylsulfonyl)-1H-indazol-3-yl)benzoic acid]
2 | 182 nM | O=C(O)c1ccc(-c2nn(S(=O)(=O)c3cccc4ccccc34)c3ccccc23)cc1 [Example 15B, 4-(1-(naphthalen-1-ylsulfonyl)-1H-indazol-3-yl)benzoic acid]
3 | 245 nM | O=C(O)c1ccc(-c2nn(C(=O)c3c(Cl)cccc3Cl)c3ccc(F)cc23)cc1 [Example 2, 4-(1-(2,6-dichlorobenzoyl)-5-fluoro-1H-indazol-3-yl)benzoic acid]
4 | 44.7 nM | O=C(O)c1ccc(-c2nn(C(=O)c3ccccc3Br)c3ccccc23)cc1 [Example 11B, 4-(1-(2-bromobenzoyl)-1H-indazol-3-yl)benzoic acid]
5 | 60.3 nM | COc1cccc(F)c1C(=O)n1nc(-c2ccc(C(=O)O)cc2)c2ccccc21 [Example 11G, 4-(1-(2-fluoro-6-methoxybenzoyl)-1H-indazol-3-yl)benzoic acid]
6 | 14.1 nM | O=C(O)c1ccc(-c2cn(C(=O)c3c(Cl)cccc3Cl)c3cccnc23)cc1 [Example 7, 4-(1-(2,6-dichlorobenzoyl)-1H-pyrrolo[3,2-b]pyridin-3-yl)benzoic acid]
7 | 1020 nM | O=C(c1cccc(Cl)c1Cl)n1nc(-c2ccc(-c3nnn[nH]3)cc2)c2ccccc21 [Example 23, (3-(4-(1H-tetrazol-5-yl)phenyl)-1H-indazol-1-yl)(2,3-dichlorophenyl)methanone]
8 | 5010 nM | O=C(c1c(Cl)cccc1Cl)n1nc(-c2ccc(-c3nnn[nH]3)cc2)c2ccccc21 [Example 22, (3-(4-(1H-tetrazol-5-yl)phenyl)-1H-indazol-1-yl)(2,6-dichlorophenyl)methanone]
9 | 26.3 nM | O=C(O)c1ccc(-c2nn(S(=O)(=O)c3cccc(Cl)c3Cl)c3ccccc23)cc1 [Example 13E, 4-(1-(2,3-dichlorophenylsulfonyl)-1H-indazol-3-yl)benzoic acid]
10 | 1910 nM | CCOc1ccccc1C(=O)n1nc(-c2ccc(C(=O)O)cc2)c2ccccc21 [Example 11J, 4-(1-(2-ethoxybenzoyl)-1H-indazol-3-yl)benzoic acid]
11 | 3550 nM | O=S(=O)(c1cccc(Cl)c1)n1nc(-c2ccc(-c3nnn[nH]3)cc2)c2ccccc21 [Example 20, 3-(4-(1H-tetrazol-5-yl)phenyl)-1-(3-chlorophenylsulfonyl)-1H-indazole]
12 | 166 nM | O=C(O)c1ccc(-c2nn(S(=O)(=O)c3ccc(Cl)c(Cl)c3Cl)c3ccccc23)cc1 [Example 13F, 4-(1-(2,3,4-trichlorophenylsulfonyl)-1H-indazol-3-yl)benzoic acid]
13 | 389 nM | COC(=O)c1sccc1S(=O)(=O)n1nc(-c2ccc(-c3nnn[nH]3)cc2)c2ccccc21 [Example 21A, methyl 3-(3-(4-(1H-tetrazol-5-yl)phenyl)-1H-indazol-1-ylsulfonyl)thiophene-2-carboxylate]
14 | 1230 nM | Cc1cc(C)cc(S(=O)(=O)n2nc(-c3ccc(C(=O)O)cc3F)c3ccccc32)c1 [Example 17, 4-(1-(3,5-dimethylphenylsulfonyl)-1H-indazol-3-yl)-3-fluorobenzoic acid]
15 | 275 nM | O=C(O)c1ccc(-c2nn(S(=O)(=O)c3ccccc3OC(F)(F)F)c3ccccc23)cc1 [Example 15A, 4-(1-(2-(trifluoromethoxy)phenylsulfonyl)-1H-indazol-3-yl)benzoic acid]
16 | 955 nM | O=C(O)c1ccc(-c2nn(S(=O)(=O)c3ccccc3Cl)c3ccncc23)cc1 [Example 16, 4-(1-(2-chlorophenylsulfonyl)-1H-pyrazolo[4,3-c]pyridin-3-yl)benzoic acid]
17 | 1950 nM | N#Cc1ccccc1S(=O)(=O)n1nc(-c2ccc(C(=O)O)cc2)c2ccccc21 [Example 14, 4-(1-(2-cyanophenylsulfonyl)-1H-indazol-3-yl)benzoic acid]

Biological target: T2, HIS-tagged RORγ-LBD (Homo sapiens, UniProt P51449)
T2 construct: HIS-tagged RORγ-LBD was recombinantly expressed in SF9 cells using a baculovirus expression system; made in house; host or cells: SF9 cells, baculovirus; crude lysate used
T2 sequence (P51449 269-508 limits assumed): T1 sequence (P51449 269-508 limits assumed)
Experiment: TR-FRET assay (Protocol B), RORγ-LBD lysate / biotinylated SRC1-2 LXXLL peptide
Assay type: biochemical
Details: unpurified RORγ-LBD lysate ~10 nM, SRC1-2 peptide 450 nM
Description: as §1, §2
TR-Fret Assay (Protocol B)
HIS-tagged RORγ-LBD was recombinantly expressed in SF9 cells using a baculovirus expression system. The protein was not purified. Cells were lysed and the lysate was used as a source for RORγ-LBD for the assay. A 1:80 dilution of RORγ-LBD lysate in assay buffer (25 mM HEPES pH 7.0, 100 mM NaCl, 0.01% Tween, 0.1% BSA) was prepared and 5 μL was added to each well (RORγ-LBD final concentration ˜10 nM). Control wells received lysate from SF9 cells not expressing RORγ-LBD.
Compounds to be tested were diluted to 100× final test concentration in DMSO and further diluted to 4× final test concentration using assay buffer to provide the test compound mixture. An aliquot (5 μL) of the test compound mixture was added to each well.

Row | IC50 | SMILES
18 | < 50 nM | O=C(O)c1c(O)cc(-c2nn(C(=O)c3c(Cl)cccc3C(F)(F)F)c3cccc(F)c23)cc1F [Example 26D, 4-(1-(2-chloro-6-(trifluoromethyl)benzoyl)-4-fluoro-1H-indazol-3-yl)-2-fluoro-6-hydroxybenzoic acid]
19 | 500 to 10000 nM | O=C(O)c1cccc(-c2nn(C(=O)c3c(Cl)cccc3C(F)(F)F)c3cccnc23)c1 [Example 24AC, 3-(1-(2-chloro-6-(trifluoromethyl)-benzoyl)-1H-pyrazolo[4,3-b]pyridin-3-yl) benzoic acid]
20 | 500 to 10000 nM | O=C(O)Cc1cccc(-c2nn(C(=O)c3c(Cl)cccc3C(F)(F)F)c3cccc(F)c23)c1 [Example 24F, 2-(3-(1-(2-chloro-6-(trifluoromethyl)-benzoyl)-4-fluoro-1H-indazol-3-yl)phenyl)acetic acid]
21 | < 50 nM | Cc1cc(C(=O)O)ccc1-c1nn(C(=O)c2c(Cl)cccc2C(F)(F)F)c2cccc(F)c12 [Example 24L, 4-(1-(2-chloro-6-(trifluoromethyl)-benzoyl)-4-fluoro-1H-indazol-3-yl)-3-methylbenzoic acid]
22 | < 50 nM | O=C(O)c1ccc(-c2nn(C(=O)c3c(Cl)cccc3C(F)(F)F)c3cc(CO)ccc23)c(F)c1 [Example 24BF, 4-(1-(2-chloro-6-(trifluoromethyl)-benzoyl)-6-(hydroxymethyl)-1H-indazol-3-yl)-3-fluorobenzoic acid]
23 | < 50 nM | N#Cc1cc(-c2nn(C(=O)c3c(Cl)cccc3C(F)(F)F)c3cccc(F)c23)ccc1C(=O)O [Example 24U, 4-(1-(2-chloro-6-(trifluoromethyl)-benzoyl)-4-fluoro-1H-indazol-3-yl)-2-cyano benzoic acid]
24 | 500 to 10000 nM | O=C(c1c(Cl)cccc1C(F)(F)F)n1nc(-c2ccc(C(O)(C(F)(F)F)C(F)(F)F)cc2)c2ncccc21 [Example 24AE, (2-chloro-6-(trifluoromethyl)-phenyl)(3-(4-(1,1,1,3,3,3-hexafluoro-2-hydroxypropan-2-yl)phenyl)-1H-pyrazolo[4,3-b]pyridin-1-yl)methanone]
25 | < 50 nM | COc1cccc(F)c1C(=O)n1nc(-c2ccc(C(=O)O)cc2)c2ncccc21 [Example 24AM, 4-(1-(2-fluoro-6-methoxybenzoyl)-1H-pyrazolo[4,3-b]pyridin-3-yl)benzoic acid]
26 | < 50 nM | O=C(O)c1ccc(-c2nn(C(=O)c3c(Cl)cccc3C(F)(F)F)c3cccnc23)c(Cl)c1 [Example 24AG, 3-chloro-4-(1-(2-chloro-6-(trifluoromethyl)-benzoyl)-1H-pyrazolo[4,3-b]pyridin-3-yl)benzoic acid]
27 | < 50 nM | O=C(O)c1ccc(-c2nn(C(=O)c3c(Cl)cccc3C(F)(F)F)c3cc(C(=O)NCCO)ccc23)c(Cl)c1 [Example 25K, 3-chloro-4-(1-(2-chloro-6-(trifluoromethyl)benzoyl)-6-(2-hydroxyethyl-carbamoyl)-1H-indazol-3-yl)benzoic acid]
28 | < 50 nM | O=C(O)c1ccc(-c2nn(C(=O)c3c(Cl)cccc3C(F)(F)F)c3cc(O)ccc23)c(F)c1 [Example 24BB, 4-(1-(2-chloro-6-(trifluoromethyl)-benzoyl)-6-hydroxy-1H-indazol-3-yl)-3-fluorobenzoic acid]
29 | < 50 nM | O=C(O)c1ccc(-c2nn(C(=O)c3c(Cl)cccc3C(F)(F)F)c3cccnc23)cc1O [Example 26H, 4-(1-(2-chloro-6-(trifluoromethyl)benzoyl)-1H-pyrazolo[4,3-b]pyridin-3-yl)-2-hydroxybenzoic acid]
30 | 500 to 10000 nM | O=C(O)c1ccc(-c2nn(C(=O)c3c(Cl)cccc3C(F)(F)F)c3cc(O)cc(F)c23)cc1 [Example 24BC, 4-(1-(2-chloro-6-(trifluoromethyl)-benzoyl)-4-fluoro-6-hydroxy-1H-indazol-3-yl)benzoic acid]

Row | SMILES | IC50
31 | CC(=O)Oc1cc(-c2nn(C(=O)c3c(Cl)cccc3C(F)(F)F)c3cccc(F)c23)ccc1C(=O)O [Example 26B, 2-acetoxy-4-(1-(2-chloro-6-(trifluoromethyl)benzoyl)-4-fluoro-1H-indazol-3-yl)benzoic acid] | < 50 nM
